Experimental data taken from patent publication US20250092031A1, “RIPK3 INHIBITORS AND METHODS OF USE” (Momentum Therapeutics, Inc., priority 2023, published 2025).

Columns and labels:
[1] = test system: Human HT-29 cells; assay: Necroptosis inhibition assay in HT-29 cells (hTNFα + zVAD + SMAC mimetic, Sytox Green/Hoechst); assay type: cell-based; conditions: 10 ng/ml hTNFα, 20 μM zVAD and 100 nM SMAC mimetic, 6 hours, Sytox/Hoechst positive cells, read-out: HT29 necroptosis inhibition IC50
Description: Human HT-29 cells (ATCC-HTB-38) were seeded at 10,000 cells/well in a 96-well plate. Cells were treated 48 hours after seeding with 10 ng/ml hTNFα (R&D Systems), 20 μM zVAD (ChemShuttle) and 100 nM SMAC mimetic (MedChem Express) in the presence of different concentrations of compounds ranging from […] to 0.01 μM. Cells treated with 0.1% DMSO or cells treated with TNFα+zVAD+SMAC mimetic were used as control and vehicle respectively.
Assay plates containing cells were incubated for 6 hours at 37° C. and 5% CO2. Necroptosis was assessed using Sytox Green Nucleic Acid Stain (Invitrogen) and Hoechst staining. After incubation, 100 μL of Sytox dye at 2 μM (2×) diluted in HBSS 1× was added to each well. At the same time, Hoechst stain is added to a final concentration of 10 μM and incubated for 15 min at room temperature. Images were taken for Sytox and Hoechst using the Cytation 5 microplate reader with DAPI and GFP filter cubes (Biotek). Sytox and Hoechst positive cells were counted with CellProfiler software.
Percentage of necroptosis inhibition was calculated as the percent compared to control and vehicle conditions which correspond to 100% and 0% respectively. The half-maximum necroptosis inhibition (IC50) levels were calculated using GraphPad Prism software and are shown in Table 3 (NT represents compound not tested).

[2] = test system: Murine L929 cells; assay: Necroptosis inhibition assay in L929 cells (mTNFα + zVAD, Sytox Green); assay type: cell-based; conditions: Mus musculus, 10 ng/ml mTNFα and 20 μM zVAD, 6 hours, Sytox Green fluorescence
Method in brief: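 Murine L929 cells, treated 48 h after seeding with 10 ng/ml mTNFα plus 20 μM zVAD and compound ([…]), 6 h at 37° C. Necroptosis read by Sytox Green fluorescence (500ex/530em), scaled between 0.1% DMSO and TNFα+zVAD wells; IC50 from inhibition curves.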

[3] = biological target: T1, RIPK3 (Homo sapiens, UniProt Q9Y572); assay: RIPK3 kinase assay (radiometric HotSpot, Reaction Biology Corporation); assay type: biochemical
T1 construct: purchased Reaction Biology Corporation (RBC), Malvern, USA (contract assay service)
T1 sequence (Q9Y572 whole entry): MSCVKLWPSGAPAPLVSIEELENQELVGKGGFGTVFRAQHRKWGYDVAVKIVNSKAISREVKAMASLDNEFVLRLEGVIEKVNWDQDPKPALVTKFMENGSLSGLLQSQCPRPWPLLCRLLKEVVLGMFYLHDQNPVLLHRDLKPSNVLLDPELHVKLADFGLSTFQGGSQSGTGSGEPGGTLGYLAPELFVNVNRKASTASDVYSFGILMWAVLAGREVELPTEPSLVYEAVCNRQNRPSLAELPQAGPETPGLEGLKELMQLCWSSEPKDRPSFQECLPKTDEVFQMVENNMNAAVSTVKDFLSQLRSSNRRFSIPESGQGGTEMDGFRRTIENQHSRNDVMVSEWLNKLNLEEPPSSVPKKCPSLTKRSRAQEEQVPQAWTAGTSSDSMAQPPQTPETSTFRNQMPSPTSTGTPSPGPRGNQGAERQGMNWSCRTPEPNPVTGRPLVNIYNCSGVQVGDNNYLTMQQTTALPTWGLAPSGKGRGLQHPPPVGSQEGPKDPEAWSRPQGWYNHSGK
Description: The assays were performed in Reaction Biology Corporation (RBC), Malvern, USA. Compounds were diluted with DMSO to a final stock concentration of 10 mM and then were tested in a 10-dose IC50 mode with a 3-fold serial dilution starting at […]. All the reactions were carried out at 10 μM ATP and MBP 20 μM as substrates. RIPK3 activity was determined using radiometric HotSpot™ kinase assay protocol and IC50 values were calculated use GraphPad Prism software.

Row | SMILES | IC50 [1] [nM] | IC50 [2] [nM] | IC50 [3] [nM]
1 | CN1CCN(Cc2ccc(-c3ccc4nccc(Nc5ccc6scnc6c5)c4c3)c(F)c2)CC1 [Compound 11, N-(6-(2-fluoro-4-((4-methylpiperazin-1-yl)methyl)phenyl)quinolin-4-yl)benzo[d]thiazol-5-amine] | 102 | 333 | 1.29
2 | CN1CCN(Cc2ccc(-c3ccc4nccc(Nc5ccc(Cl)c(Cl)c5)c4c3)c(F)c2)CC1 [Compound 31, N-(3,4-dichlorophenyl)-6-(2-fluoro-4-((4-methylpiperazin-1-yl)methyl)phenyl)quinolin-4-amine] | 523 | 1660 | 2.75
3 | Fc1cc(CN2CC3(CCOCC3)C2)ccc1-c1ccc2c(Nc3ccc4scnc4c3)ccnc2c1 [Compound 52, N-(7-(4-(7-oxa-2-azaspiro[3.5]nonan-2-ylmethyl)-2-fluorophenyl)quinolin-4-yl)benzo[d]thiazol-5-amine] | 505 | 323 | 0.57
4 | CN1CCN(C(=O)c2ccc(-c3ccc4nccc(Nc5ccc6scnc6c5)c4c3)cc2)CC1 [Compound 35, (4-(4-(benzo[d]thiazol-5-ylamino)quinolin-6-yl)phenyl)(4-methylpiperazin-1-yl)methanone] | 116 | 818 | 3.97
5 | O=c1ccccn1Cc1ccc(-c2ccc3nccc(Nc4ccc5scnc5c4)c3c2)c(F)c1 [Compound 47, 1-(4-(4-(benzo[d]thiazol-5-ylamino)quinolin-6-yl)-3-fluorobenzyl)pyridin-2(1H)-one] | 1020 | 421 | 0.86
6 | Fc1cc(CN2CC3(CCOCC3)C2)ccc1-c1ccc2nccc(Nc3ccc4scnc4c3)c2c1 [Compound 51, N-(6-(4-(7-oxa-2-azaspiro[3.5]nonan-2-ylmethyl)-2-fluorophenyl)quinolin-4-yl)benzo[d]thiazol-5-amine] | 1200 | 832 | 1.88
7 | CN1CCN(Cc2ccc(-c3ccc4c(Nc5ccc6scnc6c5)ccnc4c3)c(F)c2)CC1 [Compound 29, N-(7-(2-fluoro-4-((4-methylpiperazin-1-yl)methyl)phenyl)quinolin-4-yl)benzo[d]thiazol-5-amine] | 341 | 494 | 2.31
8 | O=C(c1ccc(-c2ccc3nccc(Nc4ccc5scnc5c4)c3c2)c(F)c1)N1CCNCC1 [Compound 249, (4-(4-(benzo[d]thiazol-5-ylamino)quinolin-6-yl)-3-fluorophenyl)(piperazin-1-yl)methanone] | 67.9 | 1260 | 1.75
9 | Fc1cc(CN2CCCC2)ccc1-c1ccc2c(Nc3ccc4scnc4c3)ccnc2c1 [Compound 54, N-(7-(2-fluoro-4-(pyrrolidin-1-ylmethyl)phenyl)quinolin-4-yl)benzo[d]thiazol-5-amine] | 630 | 201 | 0.308
10 | CN1CCN(Cc2ccc(-c3ccc4nccc(Nc5ccc6scnc6c5)c4c3)c(F)c2)CC1=O [Compound 13, 4-(4-(4-(benzo[d]thiazol-5-ylamino)quinolin-6-yl)-3-fluorobenzyl)-1-methylpiperazin-2-one] | 317 | 1130 | 1.72
11 | Fc1cc(CN2CCOCC2)ccc1-c1ccc2nccc(Nc3ccc4scnc4c3)c2c1 [Compound 22, N-(6-(2-fluoro-4-(morpholinomethyl)phenyl)quinolin-4-yl)benzo[d]thiazol-5-amine] | 327 | 316 | 2.13
12 | CC(C)(C)N1CCN(Cc2ccc(-c3ccc4c(Nc5ccc6scnc6c5)ccnc4c3)c(F)c2)CC1 [Compound 37, N-(7-(4-((4-(tert-butyl)piperazin-1-yl)methyl)-2-fluorophenyl)quinolin-4-yl)benzo[d]thiazol-5-amine] | 670 | 445 | 1.79
13 | OCCN1CCN(Cc2ccc(-c3ccc4nccc(Nc5ccc6scnc6c5)c4c3)c(F)c2)CC1 [Compound 17, 2-(4-(4-(4-(benzo[d]thiazol-5-ylamino)quinolin-6-yl)-3-fluorobenzyl)piperazin-1-yl)ethanol] | 97.1 | 341 | 0.95
14 | CN1CCCN(Cc2ccc(-c3ccc4nccc(Nc5ccc6scnc6c5)c4c3)c(F)c2)CC1 [Compound 27, N-(6-(2-fluoro-4-((4-methyl-1,4-diazepan-1-yl)methyl)phenyl)quinolin-4-yl)benzo[d]thiazol-5-amine] | 168 | 669 | 1.13
15 | CN1CCN(Cc2ccc(-c3ccc4nccc(Nc5ccc6scnc6c5)c4c3)cc2)CC1 [Compound 1, N-(6-(4-((4-methylpiperazin-1-yl)methyl)phenyl)quinolin-4-yl)benzo[d]thiazol-5-amine] | 334 | 341 | 2.58
16 | O=C(c1ccc(-c2ccc3c(Nc4ccc5scnc5c4)ccnc3c2)c(F)c1)N1CC2(CNC2)C1 [Compound 284, (4-(4-(benzo[d]thiazol-5-ylamino)quinolin-7-yl)-3-fluorophenyl)(2,6-diazaspiro[3.3]heptan-2-yl)methanone] | 386 | 960 | 1.13
17 | Fc1cc(CN2CCCCC2)ccc1-c1ccc2c(Nc3ccc4scnc4c3)ccnc2c1 [Compound 43, N-(7-(2-fluoro-4-(piperidin-1-ylmethyl)phenyl)quinolin-4-yl)benzo[d]thiazol-5-amine] | 93.9 | 188 | 0.162
18 | Fc1cc(CN2CCC(F)(F)CC2)ccc1-c1ccc2nccc(Nc3ccc4scnc4c3)c2c1 [Compound 40, N-(6-(4-((4,4-difluoropiperidin-1-yl)methyl)-2-fluorophenyl)quinolin-4-yl)benzo[d]thiazol-5-amine] | 7870 | 1060 | 18.3
19 | Fc1cc(CN2CCNCC2)ccc1-c1ccc2nccc(Nc3ccc4scnc4c3)c2c1 [Compound 41, N-(6-(2-fluoro-4-(piperazin-1-ylmethyl)phenyl)quinolin-4-yl)benzo[d]thiazol-5-amine] | 86.8 | 365 | 0.133
20 | c1cc(Nc2ccc3scnc3c2)c2ccc(-c3ccc(OCCN4CCCCC4)cc3)cc2n1 [Compound 50, N-(7-(4-(2-(piperidin-1-yl)ethoxy)phenyl)quinolin-4-yl)benzo[d]thiazol-5-amine] | 708 | 320 | 0.102
21 | CN1CCC(c2ccc(-c3ccc4nccc(Nc5ccc6scnc6c5)c4c3)cc2)CC1 [Compound 28, N-(6-(4-(1-methylpiperidin-4-yl)phenyl)quinolin-4-yl)benzo[d]thiazol-5-amine] | > 10000 | 2590 | 3.47
22 | O=C(c1ccc(-c2ccc3c(Nc4ccc5scnc5c4)ccnc3c2)c(F)c1)N1CCCCC1 [Compound 61, (4-(4-(benzo[d]thiazol-5-ylamino)quinolin-7-yl)-3-fluorophenyl)(piperidin-1-yl)methanone] | 94.2 | 93.3 | 0.029
23 | CN1CCN(C(=O)c2ccc(-c3ccc4c(Nc5ccc6scnc6c5)ccnc4c3)cc2)CC1 [Compound 34, (4-(4-(benzo[d]thiazol-5-ylamino)quinolin-7-yl)phenyl)(4-methylpiperazin-1-yl)methanone] | 119 | 68.5 | 0.65
24 | CN1CCN(Cc2ccc(-c3ccc4c(Nc5ccc6scnc6c5)ccnc4c3)cc2)CC1 [Compound 16, N-(7-(4-((4-methylpiperazin-1-yl)methyl)phenyl)quinolin-4-yl)benzo[d]thiazol-5-amine] | 158 | 104 | 0.51
25 | Fc1cc(CN2CCCC2)ccc1-c1ccc2nccc(Nc3ccc4scnc4c3)c2c1 [Compound 23, N-(6-(2-fluoro-4-(pyrrolidin-1-ylmethyl)phenyl)quinolin-4-yl)benzo[d]thiazol-5-amine] | 302 | 275 | 2.21
26 | O=C(c1ccc(-c2ccc3c(Nc4ccc5scnc5c4)ccnc3c2)c(F)c1)N1CCOCC1 [Compound 244, (4-(4-(benzo[d]thiazol-5-ylamino)quinolin-7-yl)-3-fluorophenyl)(morpholino)methanone] | – | < 1000 | 1.92
